Experiment: Solubility of compound in solvent
Type: physicochemical
Parameters: key: Good: represents that the compound was completely dissolved; Poor: represents that an insoluble matter remained
Conditions: 40° C., after 30 minutes, visual
Experimental: With regard to various solvents, a specific amount of compound (1-1-1-1) was added to various solvents each, and the resulting mixture was warmed in warm water at 40° C., and an aspect after 30 minutes was visually confirmed. A similar method was tried in compound (1-1-2-1), compound (C-1) and compound (C-2) in place of compound (1-1-1-1).
An amount of the compound added as described in Table 4 is expressed in terms of a relative value when a total weight of the solvent and the compound is taken as 100% by weight. A term “Good” in Table 4 represents that the compound was completely dissolved, and a term “Poor” in Table 4 represents that an insoluble matter remained.

solubility in 4-methyl-2-pentanone (15% by weight of compound)	solubility in cyclohexanone (15% by weight of compound)	solubility in methoxybenzene (15% by weight of compound)	solubility in 4-methyl-2-pentanone (30% by weight of compound)	solubility in cyclohexanone (30% by weight of compound)	solubility in methoxybenzene (30% by weight of compound)	SMILES	solubility in 2-acetoxy-1-methoxypropane (15% by weight of compound)	solubility in 2-acetoxy-1-methoxypropane (30% by weight of compound)
Poor	Good	Good	Poor	Good	Good	C=CC(=O)OCCCCCCOc1ccc(CCC(=O)O[C@H]2CC[C@H](C(=O)Oc3ccc(OC(=O)[C@H]4CC[C@H](OC(=O)CCc5ccc(OCCCCCCOC(=O)C=C)cc5)CC4)c4nc(-c5ccccc5)cnc34)CC2)cc1 [Compound (1-1-1-1)]	Poor	Poor
Good	Good	Good	Poor	Good	Good	C=CC(=O)OCCCCCCOc1ccc(CCC(=O)O[C@H]2CC[C@H](C(=O)Oc3ccc(OC(=O)[C@H]4CC[C@H](OC(=O)CCc5ccc(OCCCCCCOC(=O)C=C)cc5)CC4)c4nc(-c5ccccc5)c(C)nc34)CC2)cc1 [Compound (1-1-2-1)]	Good	Poor
Poor	Good	Good	Poor	Poor	Poor	C=CC(=O)OCCCCOc1ccc(OC(=O)[C@H]2CC[C@H](C(=O)Oc3ccc(OC(=O)[C@H]4CC[C@H](C(=O)Oc5ccc(OCCCCOC(=O)C=C)cc5)CC4)c4sc(-c5ccccc5)nc34)CC2)cc1 [Compound (C-1)]	Poor	Poor
Poor	Good	Good	Poor	Poor	Poor	C=CC(=O)OCCCCOc1ccc(OC(=O)C2CCC(C(=O)Oc3ccc(OC(=O)C4CCC(C(=O)Oc5ccc(OCCCCOC(=O)C=C)cc5)CC4)c(C=NNc4nc5ccccc5s4)c3)CC2)cc1 (centres unmarked) [Compound (C-2)]	Poor	Poor

Reference: US10581022B2, “Polymerizable liquid crystal compound, composition, liquid crystal polymerization film-kind thereof and use thereof” (JNC CORPORATION, priority 2015, dated 2020)
